In patent publication US10143668B2, “Hydroxy-substituted amino and ammonium derivatives and their medical use” (GRI BIO, INC., priority 2011, dated 2018):
Where two headings read alike, the source gives them in different places.

Tests used:
[1] = tested on: DTH response in mice; format: in vivo; conditions: for Inhibition of mouse ear swelling: 24 h after challenge
Procedure: The anti-inflammatory and anti-allergic effects of compound 1a was assessed in a mouse model of skin delayed-type hypersensitivity (DTH) reactions and compared to a vehicle control and to the reference drug, dexamethasone. DTH reactions are antigen-specific cell-mediated immune responses, driven primarily by T helper type 1 (Th1) cells, similar to the tuberculin immunization response. The immune reaction induced by an ovalbumin challenge to animals previously sensitized with ovalbumin in Complete Freund's Adjuvant, is characterized by swelling (edema) at the site of challenge, e.g. the mouse ear. Dexamethasone, an anti-inflammatory steroid, reduces cell-mediated immune responses and was employed to validate the responsiveness of the assay to pharmacological treatment.
Female BALB/cJW mice were bred at the University of Lodz, Lodz, Poland and housed in groups of 8 in makrolon cages with a 12 h light-dark cycle. Mice were given free access to food (Agropol S. j., Motycz, Poland) and water.
Sensitization: The protein antigen, ovalbumin, was reconstituted in PBS at 4 mg/ml. An ovalbumin-CFA emulsion was prepared by mixing the protein solution with the CFA suspension at a ratio of 1:1, using two Luer-lock syringes. The emulsion was tested by putting a drop of emulsion onto PBS; if the emulsion remained as a tight droplet on the PBS, the emulsion was deemed ready. Mice were sensitized by subcutaneously injecting 25 μL of emulsion into each side of the tail (100 μg ovalbumin per mouse).
Challenge: On the sixth day after sensitization, DTH was elicited by challenging animals subcutaneously (gauge 30 needle, B. Braun Melsungen, Melsungen, Germany) in the left ears with 10 μL of a 1% suspension of heat-aggregated ovalbumin (HOVA) (100 μg ovalbumin per mouse). The right ears were administered subcutaneously with PBS and served to determine the individual differences in ear thicknesses. HOVA was prepared by heating a 5% solution of ovalbumin in saline for 1 h at 80° C. with occasional swirling. After cooling to room temperature and centrifugation (400 g, 10 min at 4° C.), the pellet was washed twice with saline, resuspended at 2% in PBS and aliquots stored at −30° C. Before injection, HOVA was diluted with an equal volume of PBS and sonicated. Ear thickness was measured with a precise spring-loaded caliper (Art. No. 7309, Mitutoyo, Kawasaki, Japan) before challenge, and 24 h after challenge.
Sensitization, challenge and ear thickness measurement were performed under anesthesia (ketamine 80 mg/kg plus xylazine 8 mg/kg, intraperitoneally).
The anti-inflammatory effects of compound 1a were compared to a vehicle control (0.5% methyl cellulose solution) and to the reference drug, dexamethasone. Test compound was given at 25 or 100 mg/kg orally by gavage (Art. No. 432093, Harvard Apparatus GmbH, March-Hugstetten, Germany) 16 h and 3 h before sensitization and then twice daily with the final dose given 3 h prior to ear challenge (a total of 14 administrations). Dexamethasone was given at 0.1 or 1 mg/kg orally by gavage 3 h before sensitization and once daily with the final dose given 3 h prior to antigen challenge (a total of 7 administrations). All administrations were given in a volume of 10 mL/kg.
To account for individual variability, the increase in right ear thickness, before and 24 h after administration of PBS, was subtracted from the HOVA-induced increase in left ear thickness. […]
Mean and standard deviation (SD) were calculated from individual ear edema values. […]

[2] = tested on: local lymph node reaction; test: Local lymph node weight and cell count after TDI challenge; conditions: topical, diflorasone 0.1% and 0.5%, 1a 2% or 6%
Procedure: Directly after sacrifice, the ear draining lymph node (Ln. auricularis) was prepared and excised. Organ weight was determined by means of an analytical balance (Kern, Balingen, Germany). Single cell suspensions were prepared by means of a glass potter (VWR, Darmstadt, Germany) and cells were counted with a hemocytometer (Neubauer, VWR, Germany).
One of the most undesirable side-effects of corticosteroid administration is immunosuppression, which leads to the inability to effectively address parasitic infection, wound healing and tumor growth. In the current study, the local lymph node reaction after TDI challenge (lymph node weight and cell number) was determined to assess the response of immune organs.

[3] = tested on: collagen type II-induced arthritis (CIA) in mice
[4] = therapeutic regimen, 100 mg/kg orally twice daily for 20 days, vs vehicle

CCCCCCCCCCCCCC[N+](C)(C)CC(=O)N(C)C[C@H](O)[C@@H](O)[C@H](O)[C@H](O)CO [Compound 1a, N-(2-(Dimethyl(tetradecyl)ammonio)acetyl)-N-methyl-D-glucamine chloride]
Inhibition of mouse ear swelling ([1]; 25 mg/kg orally twice daily): 43%
Inhibition of mouse ear swelling ([1]; 100 mg/kg orally twice daily): 50%
inhibition relative to that of the high dose of dexamethasone ([1]; 25 or 100 mg/kg orally twice daily vs dexamethasone 1 mg/kg): up to 94%
local lymph node reaction (lymph node weight and cell number) [2]: only a modest effect
cumulative arthritis score ([3]; prophylactic regimen): significantly reduced
duration of the disease ([3]; prophylactic regimen): significantly reduced
arthritic score ([3]; prophylactic, 25 mg/kg orally twice daily, from day 34 to day 47, vs vehicle): significantly reduced
paw thickness ([3]; prophylactic, 25 mg/kg, from day 34 after immunization, vs vehicle): significant reduction
arthritic score ([3]; prophylactic, 100 mg/kg orally twice daily, from day 40 to day 47, vs vehicle): significantly reduced
arthritis score [3, 4]: reduced the arthritis score and cumulative arthritis score compared to vehicle treated mice (FIG. 5C), but without reaching statistical significance
cumulative arthritis score [3, 4]: reduced the arthritis score and cumulative arthritis score compared to vehicle treated mice (FIG. 5C), but without reaching statistical significance
duration of disease ([3]; therapeutic regimen, 100 mg/kg, vs vehicle): trend to a reduction
